Experimental data: patent US20070049564A1 (Wyeth, priority 2005, published 2007)
Values after ≈ are worked out from the molar mass of the structure shown. Like-named read-outs stand apart in the source and are kept apart here.

Key:
[1] = tested on: E. faecalis GC 2242; assay: MIC, broth microdilution
[2] = tested on: S. pneumoniae+ GC 4465; assay: MIC, broth microdilution
Procedure: (§1) Antimicrobial susceptibility testing. The in vitro activities of the antibiotics are determined by the broth microdilution method as recommended by the National Committee for Clinical Laboratory Standards (NCCLS) (1). Mueller-Hinton II broth (MHBII)(BBL Cockeysville, Md.) is the medium employed in the testing procedures. Microtiter plates containing serial dilutions of each antimicrobial agent are inoculated with each organism to yield the appropriate density (10^5 CFU/ml) in a 100 μl final volume. The plates are incubated for 18-22 hours at 35° C. in ambient air.
(§2) Representative compounds were first incubated in mouse serum for an hour prior to the in vitro testing against a panel of selected gram-positive and gram-negative bacteria strains. All compounds were also pre-incubated in water for an hour prior to testing as control.

[3] = tested on: S. aureus GC 2216; assay: MIC, broth microdilution
[4] = tested on: E. coli GC 2236; assay: MIC, broth microdilution
[5] = tested on: S. epidermidis GC 4935; assay: MIC, broth microdilution
[6] = tested on: E. faecalis GC 4555; assay: MIC, broth microdilution; conditions: Enterococcus faecalis
[7] = tested on: Staph.; assay: Range of MIC for Staph. strains, including MRSA; conditions: Staphylococcus aureus, MRSA
Procedure: as §1
Representative compounds were first incubated in mouse serum for an hour prior to the in vitro testing against a panel of selected gram-positive and gram-negative bacteria strains. All compounds were also pre-incubated in water for an hour prior to testing as control. Representative compounds of Formula I were incubated in human serum prior to MIC determination.

[8] = tested on: S. pneumoniae* GC 4465; assay: MIC, broth microdilution; conditions: Streptococcus pneumoniae, pre-incubation in mouse serum
[9] = tested on: Staph. aureus Smith; assay: In vivo activity (oral, iv; ED50) against Staph. aureus Smith in mice
Procedure: Representative examples of compounds of Formula I were tested for the oral efficacy using S. aureus Smith in mice.

[10] = tested on: S. aureus GC 4536; assay: MIC, broth microdilution
[11] = tested on: E. coli; assay: Range of MIC for E. coli strains; conditions: Escherichia coli
[12] = tested on: E. coli GC 2272; assay: MIC, broth microdilution
[13] = tested on: P. aeruginosa GC 2214; assay: MIC, broth microdilution
Procedure: as §1, §2

[14] = tested on: E. faecalis GC 2267; assay: MIC, broth microdilution
[15] = tested on: E. faecium GC 2243; assay: MIC, broth microdilution
[16] = tested on: c. albicans GC 3066; assay: MIC, broth microdilution
[17] = tested on: E. coli GC 2231; assay: MIC, broth microdilution
[18] = tested on: S. aureus GC 1131; assay: MIC, broth microdilution
[19] = tested on: E. coli GC 2232; assay: MIC, broth microdilution
[20] = tested on: E. faecalis GC 2265; assay: MIC, broth microdilution

`CCCCN(CC(=O)Nc1cc(N(C)C)c2c(c1O)C(=O)C1=C(O)[C@]3(O)C(=O)C(C(N)=O)=C(O)[C@@H](N(C)C)C3CC1C2)C(=O)OCc1oc(=O)oc1C` (stereo partly drawn) [Example 109, (5-methyl-2-oxo-1,3-dioxol-4-yl)methyl 2-{[(7S,10aS)-9-(aminocarbonyl)-4,7-bis(dimethylamino)-1,8,10a,11-tetrahydroxy-10,12-dioxo-5,5a,6,6a,7,10,10a,12-octahydrotetracen-2-yl]amino}-2-oxoethyl(butyl)carbamate] gave an MIC ([1]; Enterococcus faecalis, GC2242, pre-incubation in mouse serum) of 1 µg/mL (≈ 1.35 µM), an MIC ([1]; Enterococcus faecalis, GC2242, pre-incubation in water) of 1 µg/mL (≈ 1.35 µM) and an MIC ([1]; pre-incubation in water) of 2 UG/ML. The MIC ([2]; Streptococcus pneumoniae, pre-incubation in mouse serum) was 1 µg/mL (≈ 1.35 µM), the MIC ([2]; Streptococcus pneumoniae, pre-incubation in water) was 1 µg/mL (≈ 1.35 µM) and the MIC ([2]; pre-incubation in water) was 2 UG/ML. The MIC ([3]; Staphylococcus aureus, GC2216, pre-incubation in mouse serum) was 1 µg/mL (≈ 1.35 µM), the MIC ([3]; pre-incubation in mouse serum) was 0.50 UG/ML and the MIC ([4]; Escherichia coli, GC2236, pre-incubation in mouse serum) was 0.5 µg/mL (≈ 0.674 µM). For the same compound, the MIC ([4]; Escherichia coli, GC2236, pre-incubation in water) was 1 µg/mL (≈ 1.35 µM), the MIC ([4]; pre-incubation in water) was 2 UG/ML and the MIC ([5]; Staphylococcus epidermidis, GC4935, pre-incubation in mouse serum) was 2 µg/mL (≈ 2.7 µM). For the same compound, the MIC ([5]; Staphylococcus epidermidis, GC4935, pre-incubation in water) was 4 µg/mL (≈ 5.39 µM), the MIC ([5]; pre-incubation in water) was 8 UG/ML and the MIC ([6]; GC4555, pre-incubation in mouse serum) was 0.5 µg/mL (≈ 0.674 µM). For the same compound, the MIC ([6]; GC4555, pre-incubation in water) was 1 µg/mL (≈ 1.35 µM), the MIC ([7]; read-out: Range of MIC, Staph (Mouse Serum)) was 0.5 to 2 µg/mL (≈ 0.674 to 2.7 µM) and the MIC ([7]; read-out: Range of MIC, Staph (Water)) was 4 to 8 µg/mL (≈ 5.39 to 10.8 µM). For the same compound, the MIC [8] was under 0.06 µg/mL, the ED50 ([9]; Staphylococcus aureus, in Mus musculus, po, read-out: ED50 Staph Smith SOD) was 19.9 mg/kg and the ED50 ([9]; iv, read-out: ED50 Staph Smith SIV) was 0.76 mg/kg. For the same compound, the MIC ([10]; Staphylococcus aureus, GC4536, pre-incubation in mouse serum) was 1 µg/mL (≈ 1.35 µM), the MIC ([10]; Staphylococcus aureus, GC4536, pre-incubation in water) was 2 µg/mL (≈ 2.7 µM) and the MIC ([10]; pre-incubation in water) was 4 UG/ML. For the same compound, the MIC ([11]; 20 h, read-out: Range of MIC, E. coli (Mouse Serum)) was 0.25 to 1 µg/mL (≈ 0.337 to 1.35 µM), the MIC ([11]; read-out: Range of MIC, E. coli (Water)) was 1 to 4 µg/mL (≈ 1.35 to 5.39 µM) and the MIC ([12]; Escherichia coli, GC2272, pre-incubation in mouse serum) was 0.25 µg/mL (≈ 0.337 µM). The MIC ([12]; pre-incubation in mouse serum) was 0.50 UG/ML, the MIC ([13]; Pseudomonas aeruginosa, GC2214, pre-incubation in mouse serum) was 16 µg/mL (≈ 21.6 µM) and the MIC ([13]; Pseudomonas aeruginosa, GC2214, pre-incubation in water) was over 64 µg/mL. It also gave an MIC ([13]; pre-incubation in mouse serum) of 32 UG/ML, an MIC ([14]; Enterococcus faecalis, GC2267, pre-incubation in mouse serum) of 1 µg/mL (≈ 1.35 µM) and an MIC ([14]; Enterococcus faecalis, GC2267, pre-incubation in water) of 2 µg/mL (≈ 2.7 µM). For the same compound, the MIC ([14]; pre-incubation in water) was 4 UG/ML, the MIC ([15]; Enterococcus faecium, GC2243, pre-incubation in mouse serum) was 0.5 µg/mL (≈ 0.674 µM) and the MIC ([15]; Enterococcus faecium, GC2243, pre-incubation in water) was 0.5 µg/mL (≈ 0.674 µM). For the same compound, the MIC ([15]; pre-incubation in water) was 1 UG/ML, the MIC ([16]; Candida albicans, GC3066) was over 64 µg/mL and the MIC ([16]; pre-incubation in water) was over 64 UG/ML. It also gave an MIC ([17]; Escherichia coli, GC2231, pre-incubation in mouse serum) of 0.5 µg/mL (≈ 0.674 µM), an MIC ([17]; Escherichia coli, GC2231, pre-incubation in water) of 1 µg/mL (≈ 1.35 µM) and an MIC ([17]; pre-incubation in mouse serum) of 1 UG/ML. It also gave an MIC ([17]; pre-incubation in water) of 2 UG/ML, an MIC ([18]; Staphylococcus aureus, GC1131, pre-incubation in mouse serum) of 1 µg/mL (≈ 1.35 µM) and an MIC ([18]; Staphylococcus aureus, GC1131, pre-incubation in water) of 2 µg/mL (≈ 2.7 µM). It also gave an MIC ([18]; pre-incubation in water) of 4 UG/ML, an MIC ([19]; Escherichia coli, GC2232, pre-incubation in mouse serum) of 0.5 µg/mL (≈ 0.674 µM) and an MIC ([19]; Escherichia coli, GC2232, pre-incubation in water) of 1 µg/mL (≈ 1.35 µM). The MIC ([19]; pre-incubation in water) was 2 UG/ML, the MIC ([20]; Enterococcus faecalis, GC2265, pre-incubation in mouse serum) was 1 µg/mL (≈ 1.35 µM) and the MIC ([20]; Enterococcus faecalis, GC2265, pre-incubation in water) was 2 µg/mL (≈ 2.7 µM). It also gave an MIC ([20]; pre-incubation in water) of 4 UG/ML.
